Measurements: the NIST ThermoML archive (doi:10.1021/je060271a)
Numbers after ± are expanded uncertainties.

Details: 303.15 K, Liquid, Vibrating tube method

CCCCCCC(=O)OCC(COC(=O)CCCCCC)(COC(=O)CCCCCC)COC(=O)CCCCCC [pentaerythritol tetraheptanoate]
Details	mass density [kg/m3]
26666 kPa	986.5 ± 1.2
26712 kPa	986.5 ± 1.2
26749 kPa	986.4 ± 1.2
26795 kPa	986.4 ± 1.2
26834 kPa	986.6 ± 1.2
26872 kPa	986.6 ± 1.2
26910 kPa	986.6 ± 1.2
26957 kPa	986.6 ± 1.2
26996 kPa	986.6 ± 1.2
27043 kPa	986.5 ± 1.2
27083 kPa	986.7 ± 1.2
27122 kPa	986.7 ± 1.2
27169 kPa	986.7 ± 1.2
27209 kPa	986.8 ± 1.2
27249 kPa	986.7 ± 1.2
27289 kPa	987 ± 1.2
27337 kPa	986.8 ± 1.2
27376 kPa	986.8 ± 1.2
27425 kPa	986.9 ± 1.2
27465 kPa	987 ± 1.2
27506 kPa	986.9 ± 1.2
27555 kPa	986.8 ± 1.2
27596 kPa	986.9 ± 1.2
27638 kPa	986.9 ± 1.2
27679 kPa	987.1 ± 1.2
27728 kPa	987 ± 1.2
27770 kPa	987 ± 1.2
27811 kPa	987.1 ± 1.2
27861 kPa	987.1 ± 1.2
27904 kPa	987 ± 1.2
27954 kPa	987.1 ± 1.2
27997 kPa	987.2 ± 1.2
28082 kPa	987.3 ± 1.2
28133 kPa	987.4 ± 1.2
28176 kPa	987.3 ± 1.2
28221 kPa	987.4 ± 1.2
28273 kPa	987.3 ± 1.2
28316 kPa	987.3 ± 1.2
28360 kPa	987.4 ± 1.2
28404 kPa	987.3 ± 1.2
28457 kPa	987.4 ± 1.2
28501 kPa	987.5 ± 1.2
28545 kPa	987.5 ± 1.2
28598 kPa	987.5 ± 1.2
28642 kPa	987.5 ± 1.2
28687 kPa	987.5 ± 1.2
28740 kPa	987.6 ± 1.2
28785 kPa	987.6 ± 1.2
28832 kPa	987.7 ± 1.2
28886 kPa	987.6 ± 1.2
28932 kPa	987.7 ± 1.2
28977 kPa	987.6 ± 1.2
29023 kPa	987.9 ± 1.2
29079 kPa	987.7 ± 1.2
29125 kPa	987.7 ± 1.2
29181 kPa	987.8 ± 1.2
29227 kPa	987.9 ± 1.2
29274 kPa	987.9 ± 1.2
29321 kPa	987.9 ± 1.2
29379 kPa	987.9 ± 1.2
29475 kPa	988 ± 1.2
29523 kPa	988.1 ± 1.2
29581 kPa	988 ± 1.2
29630 kPa	988 ± 1.2
29679 kPa	988.1 ± 1.2
29739 kPa	988.1 ± 1.2
29790 kPa	988.1 ± 1.2
29841 kPa	988.3 ± 1.2
29903 kPa	988.1 ± 1.2
29949 kPa	988.3 ± 1.2
29986 kPa	988.3 ± 1.2
30029 kPa	988.3 ± 1.2
30067 kPa	988.3 ± 1.2
30103 kPa	988.3 ± 1.2
30138 kPa	988.3 ± 1.2
30182 kPa	988.4 ± 1.2
30218 kPa	988.3 ± 1.2
30253 kPa	988.3 ± 1.2
30297 kPa	988.2 ± 1.2
30334 kPa	988.4 ± 1.2
30370 kPa	988.5 ± 1.2
30407 kPa	988.5 ± 1.2
30451 kPa	988.5 ± 1.2
30489 kPa	988.5 ± 1.2
30527 kPa	988.5 ± 1.2
30576 kPa	988.6 ± 1.2
30613 kPa	988.5 ± 1.2
30651 kPa	988.6 ± 1.2
30698 kPa	988.6 ± 1.2
30738 kPa	988.8 ± 1.2
30778 kPa	988.7 ± 1.2
30814 kPa	988.7 ± 1.2
30846 kPa	988.7 ± 1.2
30873 kPa	988.8 ± 1.2
30905 kPa	988.7 ± 1.2
30932 kPa	988.8 ± 1.2
30958 kPa	988.8 ± 1.2
30990 kPa	988.8 ± 1.2
31018 kPa	988.8 ± 1.2
31045 kPa	988.8 ± 1.2
31072 kPa	988.9 ± 1.2
31105 kPa	988.9 ± 1.2
31132 kPa	988.9 ± 1.2
31159 kPa	988.8 ± 1.2
31192 kPa	989 ± 1.2
31220 kPa	988.9 ± 1.2
31252 kPa	989 ± 1.2
31280 kPa	988.9 ± 1.2
31308 kPa	989.1 ± 1.2
31335 kPa	989 ± 1.2
31369 kPa	989.1 ± 1.2
31398 kPa	988.8 ± 1.2
